Assay results: patent US7745401B2, “Antifungal peptides and methods of use thereof” (The Board of Regents of the University of Oklahoma, priority 2005, dated 2010)
Entries after “also recorded” stand apart in the source; their conditions may differ. Where no end group is shown, it is not given here.

B1: PF-4: platelet factor-4, isolated from human platelets (protein, UniProt P02776 32-101, looked up)
Platelet factor 4: EAEEDGDLQCLCVKTTSQVRPRHITSLEVIKAGPHCPTAQLIATLKNGRKICLDLQAPLYKKIIKKLLES
B2: RANTES: Regulated upon Activation Normal T cell Expressed and Secreted protein, isolated from human platelets (protein, UniProt P13501 24-91, looked up)
C-C motif chemokine 5: SPYSSDTTPCCFAYIARPLPRAHIKEYFYTSGKCSNPAVVFVTRKNRQVCANPEKKWVREYINSLEMS
B3: CAP37: cationic antimicrobial protein of Mr 37 kDa of the human neutrophil (protein)
chain: IVGGRKARPRQFPFLASIQNQGRHFCGGALIHARFVMTAASCFQSQNPGVSTVVLGAYDLRRRERQSRQTFSISSMSENGYDPQQNLNDLMLLQLDREANLTSSVTILPLPLQNATVEAGTRCQVAGWGSQRSGGRLSRFPRFVNVTVTPEDQCRPNNVCTGVLTRRGGICNGDGGTPLVCEGLAHGVASFSLGPCGRGPDFFTRVALFRDWIDGVLNNPGP

Columns and labels:
S. cerevisiae = assay: FUN-1 vital dye yeast viability, confocal microscopy, S. cerevisiae; type: cell-based, Saccharomyces cerevisiae; settings: 400 μg/ml, 37° C. for 2 hr
Experimental: (§1) Yeast viability was also assessed using the FUN-1 Live/Dead Yeast Viability Kit (Molecular Probes, Eugene, Oreg.). The methodology employed was essentially according to the protocol provided by the vendor for use with fluorescent microscopy. Briefly, yeast cultures were prepared exactly as stated above. C. glabrata, C. pseudotropicalis, C. albicans (fluconazole sensitive isolate) and S. cerevisiae (5×10^5 cfu in 100 μl of tryptone saline) were incubated (37° C. for 2 hr) in the absence or presence of peptide (CAP37(20-44)nat and CAP37(20-44)ser26/42) at a final concentration of 400 μg/ml. At the end of the incubation period, the samples were transferred to microcentrifuge tubes and centrifuged (10,000×g for 3 min at room temperature). The supernatant was removed and the pellet resuspended in 25 μl of GH solution (2% D-glucose containing 10 mM Na-HEPES, pH 7.2) as described in the technical data sheet provided by the vendor. A working solution of the FUN-1 reagent (100 μl of 10 μM) was prepared from 10 mM stock solution and 25 μl (final concentration 5 μM) added to the yeast and incubated at room temperature for 30 min. A sample (10 μl) was placed on a microscope slide and staining observed under a Leica TCS NT confocal microscope using Ar-488 and Kr-568 Lasers and 63x Plan APO 1.2 NA water immersion objective. Images were scanned and analyzed using the Leica TCS software.

Candida albicans = type: cell-based; settings: for activity against C. albicans: in vitro killing efficacy; for activity against fluconazole resistant isolates: isolates A-5 and A-20; for activity against fluconazole sensitive isolates: isolates A-155, A-22 and A-111, 400 μg/ml; for killing of blood isolate of Candida: blood isolate of C. albicans, 400 μg/ml (150 μM); for peptide concentration required for activity: fluconazole resistant isolate A-46; for activity at the lower concentration: fluconazole resistant isolates A-5 and A-20, 200 μg/ml or 75 μM; for fungicidal or fungistatic effect: isolates A-5, A-20, A-46 and A-155, viable colony counts versus starting inoculum
Experimental: (§2) Isolates used in this study included Candida albicans (ATCC 28367), three fluconazole sensitive mucosal isolates of C. albicans, designated A-22, A-111 and A-155, three fluconazole resistant mucosal isolates of C. albicans designated A-46, A-5, and A-20, and a blood isolate of C. albicans designated WDO. Isolates were stored frozen at −70° C. and streaked onto Sabouraud Dextrose Agar (Sigma, St. Louis, Mo.) plates and maintained on plates at 4° C., with subculturing onto new plates approximately every 10 days for the duration of the studies. Fluconazole resistance was evaluated. Three clinical isolates of C. glabrata, two clinical isolates of C. dubliniensis, and single isolate each of C. krusei, C. guilliermondii, C. parapsilosis, C. pseudotropicalis and C. tropicalis and two isolates of Saccharomyces cerevisiae were also used in this study and were maintained on Sabouraud Dextrose agar plates at 4° C. A single yeast colony was cultured overnight at 33° C. in 1% phytone peptone broth (Becton Dickinson, Sparks Md.) with 0.1% D-glucose (Sigma).
Stock solutions of all peptides were made up at concentrations of 1 mg/ml in sterile endotoxin-free water for irrigation (Baxter, Deerfield, Ill.). Subsequent dilutions were all made in tryptone saline pH 5.5 (Shafer et al., Infect Immun, 1984). An aliquot (100 μl) of an overnight culture of a single colony grown at 33° C. in 1% phytone peptone broth with 0.1% glucose was subcultured in 5 ml of 1% phytone peptone broth with 0.1% glucose and incubated in a shaking water bath (80 oscillations per min, Precision, Winchester, Va.) for 90 min at 33° C. to yield a logarithmic culture. […] The optical density was read and the culture adjusted to 500 blastospores/100 μl in tryptone saline pH 5.5 (Shafer et al., Infect Immun, 1984). To 100 μl of the organism suspension in a 96 well sterile polystyrene microtiter plate (Becton Dickinson, Franklin Lakes, N.J.) was added 100 μl of the peptide (final concentrations 400 μg/ml and 200 μg/ml) or 100 μl of tryptone saline. The latter served as a control. The microtiter plate was incubated at 37° C. for 4 hr and 100 μl of the contents from each well was plated on Sabouraud Dextrose agar plates and incubated at 37° C. overnight. The colony forming units (cfu) were counted and the fungicidal activity was expressed as percent killed and calculated according to the following equation: [(control cfu−test cfu)/control cfu]×100=% killed. Control cfu is indicated by the number of colonies present after […] of incubation in tryptone saline alone in the absence of peptide. Test cfu is determined by counting the number of colonies present after incubation in tryptone saline containing the peptide. Each experimental point was performed in triplicate.
C. albicans (ATCC 28367) was used to standardize the in vitro killing assay. We explored the optimal growth conditions (temperature and time, 25° C. for 5 h and 33° C. for 90 min), numbers of blastospores per well (200, 400, 500, 600, 800, and 1000 cfu), range of peptide concentrations (750, 500, 400, 200 and 100 μg/ml) and the contact time between peptide and Candida (1, 2 and 4 hr) for killing to occur. […] The 90 minute incubation was more convenient technically and was therefore employed routinely. The optimum numbers of cfu per well was determined to be 500 and an incubation time of 4 hr at 37° C. between Candida and peptide was required to obtain optimal killing.

C. glabrata [1] = assay: FUN-1 vital dye yeast viability, confocal microscopy, C. glabrata; type: cell-based; settings: 400 μg/ml, 37° C. for 2 hr
Experimental: as §1

C. pseudotropicalis = assay: In vitro candidacidal assay, C. pseudotropicalis; type: cell-based; settings: 400 μg/ml (150 μM)
Experimental: (§3) Isolates used in this study included Candida albicans (ATCC 28367), three fluconazole sensitive mucosal isolates of C. albicans, designated A-22, A-111 and A-155, three fluconazole resistant mucosal isolates of C. albicans designated A-46, A-5, and A-20, and a blood isolate of C. albicans designated WDO. Isolates were stored frozen at −70° C. and streaked onto Sabouraud Dextrose Agar (Sigma, St. Louis, Mo.) plates and maintained on plates at 4° C., with subculturing onto new plates approximately every 10 days for the duration of the studies. Fluconazole resistance was evaluated. […]
(§4) Stock solutions of all peptides were made up at concentrations of 1 mg/ml in sterile endotoxin-free water for irrigation (Baxter, Deerfield, Ill.). […] The optical density was read and the culture adjusted to 500 blastospores/100 μl in tryptone saline pH 5.5 (Shafer et al., Infect Immun, 1984). […] The colony forming units (cfu) were counted and the fungicidal activity was expressed as percent killed and calculated according to the following equation: [(control cfu−test cfu)/control cfu]×100=% killed. […] Test cfu is determined by counting the number of colonies present after incubation in tryptone saline containing the peptide. […]

C. parapsilosis = assay: In vitro candidacidal assay, C. parapsilosis; type: cell-based; settings: 100 μg/ml (37.5 μM)
Experimental: as §3, §4

[2] = system: C. albicans (fluconazole sensitive isolate); assay: FUN-1 vital dye yeast viability, confocal microscopy, C. albicans; type: cell-based, Candida albicans; settings: 400 μg/ml, 37° C. for 2 hr
Experimental: as §1

C. guilliermondii = assay: In vitro candidacidal assay, C. guilliermondii; type: cell-based; settings: 100 μg/ml (37.5 μM)
Experimental: as §3, §4

[3] = system: Salmonella typhimurium, Escherichia coli, and Pseudomonas aeruginosa; settings: Gram negative organisms; cited from earlier work
[4] = system: hyphal forms of Candida albicans; assay: In vitro candidacidal assay on hyphal forms of C. albicans; type: cell-based; settings: clinical isolates; 400 and 200 μg/ml
Experimental: To induce hyphal formation a single colony of C. albicans isolates A-5, A-20, A-22, A-46, A-11 and A-155 from a Sabouraud Dextrose agar plate was transferred to 1% phytone peptone broth with 0.1 glucose and grown overnight at 33° C. An aliquot (500 μl) of the overnight culture was subcultured in 5 ml of RPMI-1640 (Celigro Mediatech Inc, Herndon, Va.)) with 10% fetal calf serum (Invitrogen, Grand Island, N.Y.) for 90 min at 37° C. Hyphal formation was determined under phase microscopy.
as §4, with “Ill.). Subsequent dilutions were all made in tryptone saline pH 5.5 (Shafer et al., Infect Immun, 1984).” for “Ill.).”

C. tropicalis = assay: In vitro candidacidal assay, C. tropicalis; type: cell-based; settings: 400 μg/ml (150 μM)
Experimental: as §2
as §4, with “Ill.). Subsequent dilutions were all made in tryptone saline pH 5.5 (Shafer et al., Infect Immun, 1984).” for “Ill.).”

C. dubliniensis = assay: In vitro candidacidal assay, C. dubliniensis; type: cell-based; settings: two isolates; 400 μg/ml (150 μM)
Experimental: as §2
as §4, with “Ill.). Subsequent dilutions were all made in tryptone saline pH 5.5 (Shafer et al., Infect Immun, 1984).” for “Ill.).”

C. glabrata [5] = assay: In vitro candidacidal assay, C. glabrata; type: cell-based; settings: one isolate of three; 400 μg/ml (150 μM)
Experimental: as §2
as §4, with “Ill.). Subsequent dilutions were all made in tryptone saline pH 5.5 (Shafer et al., Infect Immun, 1984).” for “Ill.).”

Candida = settings: peptides isolated from human platelets; cited from earlier work

Molecule | activity against C. albicans (Candida albicans) | activity against fluconazole resistant isolates (Candida albicans) | activity against fluconazole sensitive isolates (Candida albicans) | bactericidal activity [3] | killing (Candida albicans) | killing of blood isolate of Candida (Candida albicans) | peptide concentration required for activity (Candida albicans) | activity at the lower concentration (Candida albicans) | fungicidal or fungistatic effect (Candida albicans) | activity against C. tropicalis (C. tropicalis) | activity against C. dubliniensis (C. dubliniensis) | activity against C. glabrata (C. glabrata [5]) | candidacidal activity (Candida) | further results
NQGRHFSGGALIHARFVMTAASSFQ (NQGRHFSGGALIHARFVMTAASSFQ; listed as Homo sapiens) [CAP37(20-44)ser26/42, cysteines at positions 26 and 42 replaced by serine] | significantly abrogated activity | moderately active | lack of activity | inactive compound | – | – | – | – | – | – | – | – | – | cell viability (S. cerevisiae): virtually all cells were viable; cell viability (C. glabrata [1]): virtually all cells were viable; activity against C. pseudotropicalis (C. pseudotropicalis): some activity; activity against C. parapsilosis (C. parapsilosis): some activity; blastoconidia alive [2]: 30%; activity against C. guilliermondii (C. guilliermondii): some activity
NQGRHFCGGALIHARFVMTAASSFQ [CAP37(20-44)ser42, NQGRHFCGGALIHARFVMTAASSFQ] | significant activity | highly active | strongly active | – | > 75% | killed | 400 µg/mL | significant activity | fungicidal rather than fungistatic | killed | more effective against C. dubliniensis than CAP37(20-44)nat; also recorded: effective against both isolates of C. dubliniensis and one isolate of C. glabrata, although to a lesser extent | effective against both isolates of C. dubliniensis and one isolate of C. glabrata, although to a lesser extent | – | activity on hyphal forms of C. albicans [4]: greater activity
NQGRHFSGGALIHARFVMTAASCFQ [CAP37(20-44)ser26, NQGRHFSGGALIHARFVMTAASCFQ] | significant activity | highly active | strongly active | – | > 75% | killed | 400 µg/mL | significant activity | fungicidal rather than fungistatic | killed | effective against both isolates of C. dubliniensis and one isolate of C. glabrata, although to a lesser extent | effective against both isolates of C. dubliniensis and one isolate of C. glabrata, although to a lesser extent | – | –
B1 | – | – | – | – | – | – | – | – | – | – | – | – | exhibited candidacidal activity | –
B2 | – | – | – | – | – | – | – | – | – | – | – | – | exhibited candidacidal activity | –
B3 | – | – | – | strong bactericidal activity | – | – | – | – | – | – | – | – | – | –
